Data reported in US7396858B2, “Biguanide derivative and therapeutic agent for diabetes containing the same” (Chugai Seiyaku Kabushiki Kaisha, priority 2002, dated 2008).
Several values for one entry are separate records, joined by “and”; a condition that tells them apart may be missing. Identical values can stand only once.

Tested on: female mice (C57BLKS/J-m +/+ Lepr<db> (db/db))
Assay: Oral glucose tolerance test (blood glucose and blood lactic acid levels)
Assay type: in vivo
Conditions: subcutaneous, AUC up to 2 hours vs solvent group; for Blood glucose reduction rate (%): 30 min before oral glucose 3 g/kg; for Blood lactic acid level increase rate (%): oral glucose tolerance test
Protocol: Measurement of blood glucose reduction rate and blood lactic acid levels by the aforementioned oral glucose tolerance test may be carried out by a publicly known method, and preferred methods are described below. Specifically, 11- to 17-week-old female mice (C57BLKS/J-m +/+ Lepr (db/db)) are starved for 18-24 hours. A group of five or six mice is used for the test. Blood is sampled from the tail for measurement of the blood glucose levels and blood lactic acid levels before treatment as controls. After sampling, the biguanide derivative is dissolved in phosphate-buffered physiological saline at a suitable concentration and subcutaneously administered at a dose of 5 ml/kg. As controls are prepared mice administered only the solvent. Glucose is then administered orally at a dose of 3 g/6 ml/kg at 30 minutes after administration of the compound or solvent as an oral glucose tolerance test. Blood is sampled from the tail for measurement of the blood glucose levels and the blood lactic acid levels 30 minutes, 1 hour and 2 hours after glucose administration. The blood glucose levels are measured using a New Blood Sugar Test (Roche Diagnostics) or a Glucose CII-Test Wako (Wako Pure Chemical Industries, Ltd.). The blood lactic acid levels are measured using an “Asuka Sigma” (Sigma Diagnostics).
The blood glucose reduction rate and the blood lactic acid level increase rate are calculated according to the following formulas. Blood glucose reduction rate (%)=[(AUC for blood glucose increase level of solvent-administered group−AUC for blood glucose increase level of compound-administered group)/AUC for blood glucose increase level of solvent-administered group]×100
The blood lactic acid level increase rate is calculated according to the following formula. Blood lactic acid level increase rate (%)=[(AUC for blood lactic acid level of compound-administered group−AUC for blood lactic acid level of solvent-administered group)/AUC for blood lactic acid level of solvent-administered group]×100
Eleven- to seventeen-week-old female mice (C57BLKS/J-m +/+ Lepr (db/db)) were starved for 18-24 hours, and a group of six mice was used for the test. Blood was sampled from the tail for measurement of the blood glucose levels and blood lactic acid levels before treatment. […] As a control, the solvent alone was subcutaneously administered to mice similarly.
Glucose was then administered orally at a dose of 3 g/6 ml/kg at 30 minutes after administration of the compound or solvent as an oral glucose tolerance test. Blood was sampled from the tail for measurement of the blood glucose levels and blood lactic acid levels 30 minutes, 1 hour and 2 hours after glucose administration. The blood glucose levels were measured using a New Blood Sugar Test (Roche Diagnostics) or a Glucose CII-Test Wako (Wako Pure Chemical Industries, Ltd.). The blood lactic acid levels were measured using an “Asuka Sigma” (Sigma Diagnostics).

For `N=C(N)NC(=N)NCc1ccoc1` [1-[(Furan-3-yl)methyl]biguanide, 1-[(furan-3-yl)methyl]biguanide], which “Blood glucose reduction rate (%)” value (dosage 50 mg/kg) is on record?
Its value is 40.3%.

What about the “Blood glucose reduction rate (%)” value (dosage 75 mg/kg) of the same molecule?
The value was 65.5%.

And the “Blood lactic acid level increase rate (%)” value (dosage 75 mg/kg)?
The value was 9.7%.

Which “Blood glucose reduction rate (%)” value (dosage 200 mg/kg) does the source give for `CN(C)C(=N)N=C(N)N` [Metformin] here?
Its value is 56.0% and 41.8%.

Which “Blood glucose reduction rate (%)” value (dosage 37.5 mg/kg) does the source give for `[H]/N=C(/N)N/C(=N/[H])NCCc1ccccc1` [Phenformin] here?
Its value is 39.5% and 72.7%.

What about the “Blood lactic acid level increase rate (%)” value (dosage 37.5 mg/kg) of the same molecule?
Its value is 46.4% and 83.1%.

What about the “Blood glucose reduction rate (%)” value (dosage 75 mg/kg) of the same molecule?
Its value is 64.5% and 78.0% and 60.8% and 61.4% and 72.8% and 69.6%.

What about the “Blood lactic acid level increase rate (%)” value (dosage 75 mg/kg) of the same molecule?
Its value is 93.6% and 151.6% and 94.7% and 120.8% and 141.1% and 114.8%.
